According to PubChem BioAssay AID2060893 (Molecular Pharmacology Branch, DTP, NCI, 2025):

Test system: K86415-001-R-J1-PDC complex spheroids, viability
Assay: Anticancer human tumor K86415-001-R-J1-PDC patient-derived lung adenocarcinoma cell line growth inhibition [RAS]
Conditions: for IC50: curve of first compound; for viability, T/C: stronger effect = lower value
Summary of the method: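 Multi-cell-type spheroids: tumor cells plus HUVEC endothelial cells and mesenchymal stem cells. RAS-pathway inhibitors were combined with targeted agents, each dosed in half-log steps down from clinical Cmax, or from 10 microM when Cmax was unknown.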

[1] = second compound 0.00316 µM, first compound 0.0316 µM
[2] = second compound 0.00316 µM, first compound 0.1 µM
[3] = second compound 0.01 µM, first compound 0.0316 µM
[4] = second compound 0.01 µM, first compound 0.1 µM
[5] = second compound 0.0316 µM, first compound 0.0316 µM
[6] = second compound 0.0316 µM, first compound 0.1 µM
[7] = second compound 0.1 µM, first compound 0.0316 µM
[8] = second compound 0.1 µM, first compound 0.1 µM
[9] = second compound 0.316 µM, first compound 0.0316 µM
[10] = second compound 0.316 µM, first compound 0.1 µM
[11] = second compound 1 µM, first compound 0.0316 µM
[12] = second compound 1 µM, first compound 0.1 µM
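Note: spheroids exposed to agents for seven days before readout.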

For `CC(C)NCC(C(=O)N1CCN(c2ncnc3c2C(C)CC3O)CC1)c1ccc(Cl)cc1` (centres undefined) + C=CC(=O)N1CCN(c2nc(OCC3CCCN3C)nc3c(F)c(-c4nc(N)cc(C)c4C(F)(F)F)c(Cl)cc23)C(C)C1, the IC50 (second compound 0.00316 µM) was < 31.6 nM, the IC50 (second compound 0.01 µM) was < 31.6 nM and the IC50 (second compound 0.0316 µM) was < 31.6 nM. The IC50 (second compound 0.1 µM) was < 31.6 nM, the IC50 (second compound 0.316 µM) was < 31.6 nM and the IC50 (second compound 1 µM) was < 31.6 nM. It also gave a viability, T/C [1] of 15.9%, a viability, T/C [2] of 17.9% and a viability, T/C (second compound 0.00316 µM, first compound 0.316 µM) of 13.7%. For the same compound, the viability, T/C (second compound 0.00316 µM, first compound 1 µM) was 11.4%, the viability, T/C (second compound 0.00316 µM, first compound 3.16 µM) was 22.4% and the viability, T/C (second compound 0.00316 µM, first compound 10 µM) was 18.6%. It also gave a viability, T/C [3] of 13.2%, a viability, T/C [4] of 14.1% and a viability, T/C (second compound 0.01 µM, first compound 0.316 µM) of 8.15%. The viability, T/C (second compound 0.01 µM, first compound 1 µM) was 7.26%, the viability, T/C (second compound 0.01 µM, first compound 3.16 µM) was 9.79% and the viability, T/C (second compound 0.01 µM, first compound 10 µM) was 5.61%. The viability, T/C [5] was 11.2%, the viability, T/C [6] was 12.1% and the viability, T/C (second compound 0.0316 µM, first compound 0.316 µM) was 6.32%. The viability, T/C (second compound 0.0316 µM, first compound 1 µM) was 6.17%, the viability, T/C (second compound 0.0316 µM, first compound 3.16 µM) was 6.03% and the viability, T/C (second compound 0.0316 µM, first compound 10 µM) was 3.62%. For the same compound, the viability, T/C [7] was 17.1%, the viability, T/C [8] was 9.65% and the viability, T/C (second compound 0.1 µM, first compound 0.316 µM) was 7.67%. For the same compound, the viability, T/C (second compound 0.1 µM, first compound 1 µM) was 4.58%, the viability, T/C (second compound 0.1 µM, first compound 3.16 µM) was 6.35% and the viability, T/C (second compound 0.1 µM, first compound 10 µM) was 2.96%. It also gave a viability, T/C [9] of 12.1%, a viability, T/C [10] of 8.49% and a viability, T/C (second compound 0.316 µM, first compound 0.316 µM) of 6.58%. It also gave a viability, T/C (second compound 0.316 µM, first compound 1 µM) of 5.42%, a viability, T/C (second compound 0.316 µM, first compound 3.16 µM) of 7.11% and a viability, T/C (second compound 0.316 µM, first compound 10 µM) of 4.04%. It also gave a viability, T/C [11] of 9.4%, a viability, T/C [12] of 10.8% and a viability, T/C (second compound 1 µM, first compound 0.316 µM) of 7.39%. The viability, T/C (second compound 1 µM, first compound 1 µM) was 6.41%, the viability, T/C (second compound 1 µM, first compound 3.16 µM) was 5.23% and the viability, T/C (second compound 1 µM, first compound 10 µM) was 3.49%.

With `CC(C)n1nc(-c2ccc3oc(N)nc3c2)c2c(N)ncnc21` + C=CC(=O)N1CCN(c2nc(OCC3CCCN3C)nc3c(F)c(-c4nc(N)cc(C)c4C(F)(F)F)c(Cl)cc23)C(C)C1 the IC50 (second compound 0.00316 µM) was < 0.316 nM, the IC50 (second compound 0.01 µM) was < 0.316 nM and the IC50 (second compound 0.0316 µM) was < 0.316 nM. The IC50 (second compound 0.1 µM) was < 0.316 nM, the IC50 (second compound 0.316 µM) was < 0.316 nM and the IC50 (second compound 1 µM) was < 0.316 nM. For the same compound, the viability, T/C (second compound 0.00316 µM, first compound 0.000316 µM) was 18.4%, the viability, T/C (second compound 0.00316 µM, first compound 0.001 µM) was 17.5% and the viability, T/C (second compound 0.00316 µM, first compound 0.00316 µM) was 16.8%. The viability, T/C (second compound 0.00316 µM, first compound 0.01 µM) was 19.4%, the viability, T/C [1] was 31.8% and the viability, T/C [2] was 12.5%. For the same compound, the viability, T/C (second compound 0.01 µM, first compound 0.000316 µM) was 11.8%, the viability, T/C (second compound 0.01 µM, first compound 0.001 µM) was 11.1% and the viability, T/C (second compound 0.01 µM, first compound 0.00316 µM) was 11.4%. It also gave a viability, T/C (second compound 0.01 µM, first compound 0.01 µM) of 9%, a viability, T/C [3] of 18.9% and a viability, T/C [4] of 6%. The viability, T/C (second compound 0.0316 µM, first compound 0.000316 µM) was 10.9%, the viability, T/C (second compound 0.0316 µM, first compound 0.001 µM) was 9.65% and the viability, T/C (second compound 0.0316 µM, first compound 0.00316 µM) was 8.36%. For the same compound, the viability, T/C (second compound 0.0316 µM, first compound 0.01 µM) was 8%, the viability, T/C [5] was 8.61% and the viability, T/C [6] was 4.33%. For the same compound, the viability, T/C (second compound 0.1 µM, first compound 0.000316 µM) was 10.5%, the viability, T/C (second compound 0.1 µM, first compound 0.001 µM) was 7.96% and the viability, T/C (second compound 0.1 µM, first compound 0.00316 µM) was 7.44%. For the same compound, the viability, T/C (second compound 0.1 µM, first compound 0.01 µM) was 7.78%, the viability, T/C [7] was 5.11% and the viability, T/C [8] was 3.67%. It also gave a viability, T/C (second compound 0.316 µM, first compound 0.000316 µM) of 10.1%, a viability, T/C (second compound 0.316 µM, first compound 0.001 µM) of 8.76% and a viability, T/C (second compound 0.316 µM, first compound 0.00316 µM) of 9.08%. The viability, T/C (second compound 0.316 µM, first compound 0.01 µM) was 8.68%, the viability, T/C [9] was 6.52% and the viability, T/C [10] was 3.86%. For the same compound, the viability, T/C (second compound 1 µM, first compound 0.000316 µM) was 8.74%, the viability, T/C (second compound 1 µM, first compound 0.001 µM) was 8.53% and the viability, T/C (second compound 1 µM, first compound 0.00316 µM) was 8.04%. For the same compound, the viability, T/C (second compound 1 µM, first compound 0.01 µM) was 8.63%, the viability, T/C [11] was 6.85% and the viability, T/C [12] was 2.72%.
